Source: patent US9428447B2, “Bis-(aryl/heteroaryl)-methylene compounds, pharmaceutical compositions containing same and their use for treating cancer” (The Royal Institution For The Advancement of …, priority 2011, dated 2016)
Each block holds one compound with its values, some of them ahead of it.

Columns and labels:
VDR [1] = biological target: T1, VDR (Homo sapiens (Human), UniProt P11473); assay: VDR agonism: induction of CYP24 gene expression in SCC25 cells (RT/PCR); assay type: cell-based; settings: for VDR agonist activity/potency (CYP24 induction, dose response): 1d; for induction of CYP24 by the compound blocked (consistent with binding to the VDR): FIG. 1c; for VDR agonism by induction of CYP24 gene expression (screen): test compounds 10 μM, FIG. 1a
Protocol: RNA isolation and RT/PCR analysis. PCR primers against CYP24 (forward, 5',5'-[NT], reverse, 5'-[NT] designed using Primer3 software as described and used in […]-Mendoza, Quach, T., Dabbas, B., Hudon, J., Liao, X., Palijan, A., Gleason, J. L., and White, J. H. (2008) Incorporation of histone deacetylase inhibition into the structure of a nuclear receptor agonist. Proc. Nat. Acad. Sci. […] After treatment, cells were washed with PBS, homogenized with 1 ml TRIzol Reagent (Invitrogen, Carlsbad, Calif.), kept at room temperature for 2-5 min, collected and kept at -80° C. for at least 1 h. After, thawing 0.2 ml chloroform was added. After vigorous mixing and storing for 10 min, mixtures were centrifuged (10,000 rpm, 15 min, 4° C.) and the upper transparent layer was transferred to a new tube. 0.5 ml isopropanol was added and the new solution was mixed. After centrifuging at 4° C., the supernatant was discarded and 1 ml of 75% ethanol was added. After centrifuging and discarding the supernatant, the pellet was air-dried for 5-10 min, and then dissolved in ddH2O. RNA concentrations were measured using a spectrophotometer, and 1-3 μg of RNA were loaded for reverse transcriptase reactions (total volume: 20 μl). 80 μl of ddH2O was added to the RT-product, and 1.5 μl of that was used as template for the PCR reaction. Reverse transcriptase (Super Script II) was purchased from Invitrogen (Carlsbad, Calif.). DNA polymerase and dNTP's were ordered from Fermentas (Glen Burnie, Md.).

AT84 cells = assay: EdU cell growth assay, AT84
Protocol: (§2) EdU Cell Growth Assay. Click-iT EdU Alexa Fluor high-throughput imaging (HCS) assay for cell proliferation. HCS assays were performed on AT84 mouse squamous carcinoma cell line (ATCC) following the manufacturer's instruction (Molecular Probes, Invitrogen). […] All samples were in triplicate.

SCC4 cells [2] = assay: MTS cell proliferation assay, SCC4; assay type: cell-based, human; settings: vitamin D resistant SCC4 cells; FIGS. 7c, 8 and 9
Source text: Dose-dependent effects of compounds on cell cycle progression was monitored using a CellTiter 96 Aqueous Non-Radioactive Cell Proliferation Assay Kit (Promega). The assay composed of solutions of a novel tetrazolium compound (MTS) and an electron coupling reagent (phenazine methosulfate; PMS). MTS is reduced by metabolically active cells into a soluble formazan product that absorbs at 490 nm. The quantity of formazan product absorbing at 490 nm is directly proportional to the number of living cells.

[3] = tested on: 60 cell panel of human carcinoma cell lines; assay: National Cancer Institute 60 cell panel (overall); assay type: cell-based
SCC25 cells = assay: EdU cell growth assay, SCC25
Protocol: as §2

IGROV1 = assay: NCI 60 cell panel: IGROV1; assay type: cell-based; settings: Ovarian Cancer
SCC4 cells [4] = assay: LDH cytotoxicity assay, SCC4; assay type: cell-based, human; settings: vitamin D resistant SCC4 cells; FIGS. 10 and 11
Protocol: The cytotoxic effects of compounds were screened using a Cytotoxicity Assay Kit (Cayman Chemical), which measures release of the soluble […] enzyme lactate dehydrogenase (LDH) from dying cells into the culture medium using a coupled two-step reaction. LDH in the media catalyzes the reduction of NAD+ to NADH and H+ by oxidation of lactate to pyruvate. LDH-catalyzed NADH production is then measured by following diaphorase catalyzed NADH-dependent reduction of a tetrazolium salt (INT) to highly-colored formazan which absorbs strongly at 490-520 nm.

VDR [5] = biological target: T1, VDR; assay: Chromatin immunoprecipitation (ChIP) assay, CYP24 promoter, SCC25 cells; assay type: cell-based; settings: FIG. 1e
Protocol: Chromatin immunoprecipitation assays. ChIP assays were performed with sonicated extracts of SCC25 cells as described (see Wang, T.-T. et al. J Immunol (2004) 173:2909-2912). […] Immunoprecipitations were performed using normal rabbit IgG, anti-VDR antibody (c-20) (Santa Cruz Biotechnology, Santa Cruz, Calif.). […].

[6] = biological target: VDR ligand binding domain (Homo sapiens (Human), UniProt P11473); assay: Fluorescence polarization (FP) competition assay; settings: 0.5 nM fluorescent tracer
Protocol: Fluorescence polarization (FP) competition assay. The assay was performed using a vitamin D receptor competitor assay kit (Polarscreen, Invitrogen, Carlsbad, Calif.) set up using 0.5 nM fluorescent tracer. The assay measures the decrease in FP accompanying loss of binding to the relatively high molecular weight VDR ligand binding domain of the fluorescent tracer due to the presence of a competitor. FP was measured using an Analyst HT fluorimeter (Molecular Devices) configured with absorption and emissions filters as recommended by the kit manufacturers. Dose response curves and IC50 determination were determined using XLfit (IDBS) Sigmoidal Dose-Response Model [fit=(A+((B−A)/(1+((C/x)^D)))); inv=(C/((((B−A)/(y−A))−1)^(1/D))); res=(y−fit)].

SCC4 cells [7] = assay: EdU cell growth assay, SCC4; settings: 1,25D-resistant SCC4 cells; FIG. 2e, f
Protocol: as §2

[8] = tested on: total intracellular HDAC activity; assay: HDACi activity with fluorogenic substrate in live SCC25 cells; assay type: cell-based, human; settings: increasing concentration, FIG. 2a, b
Source text: (§1) This assay measures the inhibition of total intracellular HDAC activity and determines the capacity of compounds to inhibit HDACs in the form of their naturally occurring complexes.

[9] = tested on: total intracellular HDAC activity; assay: HDACi activity with fluorogenic substrate in live SCC4 cells; assay type: cell-based, human; settings: increasing concentration, FIG. 2a, b
Source text: as §1

T1 sequence (P11473 whole entry): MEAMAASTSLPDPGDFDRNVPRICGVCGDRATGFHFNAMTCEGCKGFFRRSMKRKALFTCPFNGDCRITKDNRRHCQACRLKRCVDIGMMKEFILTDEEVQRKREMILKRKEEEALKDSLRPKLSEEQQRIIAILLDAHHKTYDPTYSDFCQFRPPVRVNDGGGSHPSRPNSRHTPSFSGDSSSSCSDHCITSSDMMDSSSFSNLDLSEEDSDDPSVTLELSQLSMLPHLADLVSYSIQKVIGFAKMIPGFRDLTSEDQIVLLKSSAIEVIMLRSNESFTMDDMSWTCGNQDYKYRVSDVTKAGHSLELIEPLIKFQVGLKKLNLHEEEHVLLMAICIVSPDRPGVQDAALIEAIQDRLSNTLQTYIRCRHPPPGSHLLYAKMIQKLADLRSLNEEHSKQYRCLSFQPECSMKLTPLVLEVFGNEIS
VDR ligand binding domain, sequence (P11473 127-423): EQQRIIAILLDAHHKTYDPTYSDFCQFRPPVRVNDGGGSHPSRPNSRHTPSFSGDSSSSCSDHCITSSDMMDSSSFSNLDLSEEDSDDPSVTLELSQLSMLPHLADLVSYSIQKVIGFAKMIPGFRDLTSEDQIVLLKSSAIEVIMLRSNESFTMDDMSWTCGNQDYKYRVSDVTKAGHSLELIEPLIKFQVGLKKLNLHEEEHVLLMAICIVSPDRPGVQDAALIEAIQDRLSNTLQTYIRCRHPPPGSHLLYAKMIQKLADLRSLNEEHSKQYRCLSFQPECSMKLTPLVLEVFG

SMILES: CCC(CC)(c1ccc(OCC(=O)NO)c(C)c1)c1ccc(OCC(O)C(C)(C)C)c(C)c1 (racemic) [JF-B01, N-Hydroxy-2-(4-(3-(4-(2-hydroxy-3,3-dimethylbutoxy)-3-methylphenyl)pentan-3-yl)-2-methylphenoxy)acetamide]
VDR agonist potency relative to 1,25D (fold lower) (VDR [1]; FIG. 1b): approximately 10 fold | VDR agonist potency relative to LG190178 (VDR [1]; FIG. 1b): equal to or greater than that of LG190178 | VDR agonist activity/potency (CYP24 induction, dose response) (VDR [1]; FIG. 1b): efficacious agonist | induction of CYP24 by the compound blocked (consistent with binding to the VDR) (VDR [1]): blocked | VDR agonism by induction of CYP24 gene expression (screen) (VDR [1]): showed any agonist activity against VDR | antiproliferative potency relative to 1,25D (fold less potent) (AT84 cells): 10 fold | antiproliferative potency (MTS) (SCC4 cells [2]): low micromolar potency | antiproliferative activity in the 60 cell panel ([3]; all cell lines): displayed antiproliferative activity in all cell lines | full growth inhibition concentration ([3]; melanoma cell lines, 8 out of 9 cell lines): ≤ 7 µM | antiproliferative potency relative to 1,25D (fold less potent) (SCC25 cells): 10 fold | TGI (IGROV1): 5.25E−6

SMILES: CCC(CC)(c1ccc(OCC(O)C(C)(C)C)c(C)c1)c1ccc(OCC(=O)NO)c(Br)c1 (stereo not drawn) [DK-309, 2-(2-bromo-4-(3-(4-(2-hydroxy-3,3-dimethylbutoxy)-3-methylphenyl)pentan-3-yl)phenoxy)-N-hydroxyacetamide]
cytotoxicity (LDH release) (SCC4 cells [4]): good cytotoxicity

VDR agonist activity/potency (CYP24 induction, dose response) (VDR [1]; FIG. 1b): VDR agonists with similar potencies | IC50 [6]: ~0.035 µM
SMILES: CCC(CC)(c1ccc(OCC(=O)NO)c(C)c1)c1ccc(OC[C@@H](O)C(C)(C)C)c(C)c1 [JF-C72]
antiproliferative potency (MTS) (SCC4 cells [2]): low micromolar potency | binding of the VDR to the vitamin D response element in the proximal promoter of the CYP24 gene (ChIP) (VDR [5]): induced binding of the VDR to the vitamin D response element

VDR agonism by induction of CYP24 gene expression (screen) (VDR [1]): completely inactive as VDR agonists
SMILES: CCC(CC)(c1ccc(OCC(=O)NO)c(C)c1)c1ccc(OCC(CO)CO)c(C)c1 [JF-B21]

SMILES: CCC(CC)(c1ccc(OCC(=O)NO)c(C)c1)c1ccc(OCC(=O)C(C)(C)C)c(C)c1 [JF-B59, 2-(4-(3-(4-(3,3-dimethyl-2-oxobutoxy)-3-methylphenyl)pentan-3-yl)-2-methylphenoxy)-N-hydroxyacetamide]
VDR agonist potency relative to JF-B01 (fold lower) (VDR [1]; FIG. 1b): > 10 fold

SMILES: CCC(CC)(c1ccc(OCCCCCC(=O)NO)cc1)c1ccc(OCC(O)C(C)(C)C)c(C)c1 (stereo not drawn) [DK-367]
antiproliferative potency (MTS) (SCC4 cells [2]): low micromolar potency

VDR agonism by induction of CYP24 gene expression (screen) (VDR [1]): completely inactive as VDR agonists
SMILES: CCC(CC)(c1ccc(OCC(=O)NO)c(C)c1)c1ccc(OCC(=O)NO)c(C)c1 [JF-B06]

VDR agonism by induction of CYP24 gene expression (screen) (VDR [1]): completely inactive as VDR agonists
SMILES: CCC(CC)(c1ccc(OCCO)c(C)c1)c1ccc(OCC(=O)NO)c(C)c1 [JF-B52, N-Hydroxy-2-(4-(3-(4-(2-hydroxyethoxy)-3-methylphenyl)pentan-3-yl)-2-methylphenoxy)acetamide]

SMILES: CCC(CC)(c1ccc(OCC(O)C(C)(C)C)c(C)c1)c1c[nH]c2cc(CCC(=O)NO)ccc12 (stereo not drawn) [DK-222]
cytotoxicity (LDH release) (SCC4 cells [4]): good cytotoxicity | antiproliferative potency (MTS) (SCC4 cells [2]): low micromolar potency

VDR agonism by induction of CYP24 gene expression (screen) (VDR [1]): completely inactive as VDR agonists
SMILES: CCC(CC)(c1ccc(OCC(=O)NO)c(C)c1)c1ccc(OCC(O)CO)c(C)c1 (stereo not drawn) [JF-B40]

SMILES: CCC(CC)(c1ccc(OCC(=O)NO)cc1)c1ccc(OCC(O)C(C)(C)C)c(C)c1 (stereo not drawn) [DK-366, N-hydroxy-2-(4-(3-(4-(2-hydroxy-3,3-dimethylbutoxy)-3-methylphenyl)pentan-3-yl)phenoxy)acetamide]
cytotoxicity (LDH release) (SCC4 cells [4]): good cytotoxicity | antiproliferative potency (MTS) (SCC4 cells [2]): low micromolar potency

induction of CYP24 by the compound blocked (consistent with binding to the VDR) (VDR [1]): blocked
SMILES: CCC(CC)(c1ccc(OCC(=O)NO)c(C)c1)c1ccc(OCC(C)(C)O)c(C)c1 [JF-B53, N-Hydroxy-2-(4-(3-(4-(2-hydroxy-2-methylpropoxy)-3-methylphenyl)pentan-3-yl)-2-methylphenoxy)acetamide]
VDR agonist activity/potency (CYP24 induction, dose response) (VDR [1]; FIG. 1b): showed VDR agonist activity, but with reduced potency

SMILES: CCC(CC)(c1ccc(OCCCC(=O)NO)c(C)c1)c1ccc(OC[C@H](O)C(C)(C)C)c(C)c1 [JFD-15]
antiproliferative potency (MTS) (SCC4 cells [2]): low micromolar potency

SMILES: CCC(CC)(c1ccc(OCC(O)CO)c(C)c1)c1ccc(OCC(O)C(C)(C)C)c(C)c1 (stereo not drawn) [LG190178]
inhibition of proliferation (EdU incorporation) (SCC4 cells [7]): failed to block SCC4 proliferation

SMILES: CCC(CC)(c1ccc(OCC(=O)NO)c(C)c1)c1ccc(OC[C@H](O)C(C)(C)C)c(C)c1 [JF-C71, N-Hydroxy-2-(4-(3-(4-((2R)-hydroxy-3,3-dimethylbutoxy)-3-methylphenyl)pentan-3-yl)-2-methylphenoxy)acetamide]
VDR agonist activity/potency (CYP24 induction, dose response) (VDR [1]; FIG. 1b): VDR agonists with similar potencies | antiproliferative potency (MTS) (SCC4 cells [2]): low micromolar potency | binding of the VDR to the vitamin D response element in the proximal promoter of the CYP24 gene (ChIP) (VDR [5]): induced binding of the VDR to the vitamin D response element | IC50 [6]: ~0.1 µM

VDR agonism by induction of CYP24 gene expression (screen) (VDR [1]): showed some agonist activity
SMILES: CCC(CC)(c1ccc(OCC(=O)O)c(C)c1)c1ccc(OCC(=O)C(C)(C)C)c(C)c1 [JF-C11]

SMILES: CCC(O)(CC)COc1ccc(C(CC)(CC)c2ccc(OCC(=O)NO)c(C)c2)cc1C [JF-B54, 2-(4-(3-(4-(2-Ethyl-2-hydroxybutoxy)-3-methylphenyl)pentan-3-yl)-2-methylphenoxy)-N-hydroxyacetamide]
VDR agonist activity/potency (CYP24 induction, dose response) (VDR [1]; FIG. 1b): showed VDR agonist activity, but with reduced potency | induction of CYP24 by the compound blocked (consistent with binding to the VDR) (VDR [1]): blocked | inhibition of total intracellular HDAC activity (substrate deacetylation) [8]: the most potent | inhibition of total intracellular HDAC activity (substrate deacetylation) [9]: the most potent

SMILES: CCC(CC)(c1ccc(OCC(O)C(C)(C)C)c(C)c1)c1cn(C)c2cc(CCC(=O)NO)ccc12 (stereo not drawn) [DK-234, N-hydroxy-3-(3-(3-(4-(2-hydroxy-3,3-dimethylbutoxy)-3-methylphenyl)pentan-3-yl)-1-methyl-1H-indol-6-yl)propanamide]
antiproliferative potency (MTS) (SCC4 cells [2]): low micromolar potency

SMILES: CCC(CC)(c1ccc(OCC(O)C(C)(C)C)c(C)c1)c1cc(C)c(CCC(=O)NO)s1 (stereo not drawn) [DK-178, N-hydroxy-3-(5-(3-(4-(2-hydroxy-3,3-dimethylbutoxy)-3-methylphenyl)pentan-3-yl)-3-methylthiophen-2-yl)propanamide]
antiproliferative potency (MTS) (SCC4 cells [2]): low micromolar potency

SMILES: CCC(CC)(c1ccc(CCC(=O)NO)c(C)c1)c1ccc(OC[C@H](O)C(C)(C)C)c(C)c1 [JFD-50]
antiproliferative potency (MTS) (SCC4 cells [2]): low micromolar potency
